The values that follow come from ChEMBL document CHEMBL3227945, “Synthesis of all the stereoisomers of statine (4-amino-3-hydroxy-6-methylheptanoic acid). Inhibition of pepsin activity by N-carbobenzoxy-L-valyl-L-valyl-statine derived from the four stereoisomers” (J Med Chem, 1979).

The structures appear in SMILES notation. ≈ marks a conversion by molar mass, not a printed value.

The species entered for experiment [1] is Sus scrofa. The experiment in a line: Inhibition of porcine pepsin activity assessed as hydrolysis of N-Cbz-L-Pheylalanyl-L-Tyrosine substrate.
For experiment [2], the species on record is Sus scrofa. As to the kind of experiment: Inhibition of porcine pepsin activity assessed as hydrolysis of 0.5% hemoglobin solution substrate after 1 hr.

Regarding `CC(C)C[C@H](NC(=O)[C@@H](NC(=O)[C@@H](NC(=O)OCc1ccccc1)C(C)C)C(C)C)[C@H](O)CC(=O)O`, the figures for the ID50 in experiment [1] and in experiment [2] were 12 µg/mL (≈ 23.6 µM) and 21 µg/mL (≈ 41.4 µM), respectively.
As for `CC(C)C[C@@H](NC(=O)[C@@H](NC(=O)[C@@H](NC(=O)OCc1ccccc1)C(C)C)C(C)C)[C@H](O)CC(=O)O`, the figures for the ID50 in experiment [1] and in experiment [2] were 42 µg/mL (≈ 82.7 µM) and 18 µg/mL (≈ 35.5 µM), respectively.
Taken in the same sequence, the figures for `CC(C)C[C@@H](NC(=O)[C@@H](NC(=O)[C@@H](NC(=O)OCc1ccccc1)C(C)C)C(C)C)[C@@H](O)CC(=O)O` were 219 µg/mL (≈ 431 µM) and 224 µg/mL (≈ 441 µM).
For `CC(C)CC(=O)N[C@H](C(=O)N[C@H](C(=O)N[C@@H](CC(C)C)[C@@H](O)CC(=O)N[C@@H](C)C(=O)N[C@@H](CC(C)C)[C@@H](O)CC(=O)O)C(C)C)C(C)C` the same measures were 2 µg/mL (≈ 2.92 µM) and 0.0052 µg/mL (≈ 0.00758 µM).
Taken in the same sequence, the figures for `CC(C)C[C@H](NC(=O)[C@@H](NC(=O)[C@@H](NC(=O)OCc1ccccc1)C(C)C)C(C)C)[C@@H](O)CC(=O)O` were 1 µg/mL (≈ 1.97 µM) and 0.1 µg/mL (≈ 0.197 µM).
